The source made the active and inactive calls. The calls are words filed in the database; no cut-off is given here.
How the values were obtained:
[1] = tested on: Mus musculus; experiment: Anticonvulsant activity in ip dosed Swiss albino mouse assessed as protection against PTZ-induced seizure compound administered 30 mins before challenge measured after 60 mins; assay type: functional
[2] = Neurotoxicity in ip dosed Swiss albino mouse assessed as mortality; assay type: toxicity, organism-based; settings: in vivo
[3] = tested on: Mus musculus; experiment: Anticonvulsant activity in Swiss albino mouse assessed as protection against PTZ-induced clonic seizure at 300 mg/kg, ip administered 30 mins before challenge; assay type: functional; settings: route intraperitoneal
[4] = Neurotoxicity in ip dosed Swiss albino mouse measured after 30 mins by chimney test; assay type: toxicity, organism-based; settings: in vivo
[5] = tested on: Mus musculus; experiment: Anticonvulsant activity in Swiss albino mouse assessed as protection against maximal electroshock-induced seizure at 300 mg/kg, ip administered 30 mins before challenge; assay type: functional; settings: route intraperitoneal
[6] = tested on: Mus musculus; experiment: Anticonvulsant activity in Swiss albino mouse assessed as protection against picrotoxin-induced seizure at 0.5 mmol/kg, ip administered 30 mins before challenge; assay type: functional, organism-based
[7] = tested on: Mus musculus; experiment: Anticonvulsant activity in Swiss albino mouse assessed as protection against maximal electroshock-induced seizure at 0.5 mmol/kg, ip administered 30 mins before challenge; assay type: functional
[8] = Therapeutic index, ratio of LD50 for mortality to ED50 for anticonvulsant activity in Swiss albino mouse; assay type: organism-based; settings: in vivo, read-out: TI
[9] = tested on: Mus musculus; experiment: Anticonvulsant activity in Swiss albino mouse assessed as protection against PTZ-induced seizure at 0.5 mmol/kg, ip administered 30 mins before challenge; assay type: functional
[10] = organism: Mus musculus; experiment: Protective index, ratio of TD50 for neurotoxicity to ED50 for anticonvulsant activity in Swiss albino mouse; assay type: functional
[11] = tested on: Mus musculus; experiment: Anticonvulsant activity in Swiss albino mouse assessed as protection against strychnine-induced seizure at 0.5 mmol/kg, ip administered 30 mins before challenge; assay type: functional, organism-based
[12] = tested on: Mus musculus; experiment: Anticonvulsant activity in Swiss albino mouse assessed as protection against PTZ-induced clonic seizure at 200 mg/kg, ip administered 30 mins before challenge; assay type: functional; settings: route intraperitoneal
[13] = tested on: Mus musculus; experiment: Anticonvulsant activity in Swiss albino mouse assessed as protection against maximal electroshock-induced seizure at 200 mg/kg, ip administered 30 mins before challenge; assay type: functional; settings: route intraperitoneal

For `CCCC(CCC)C(=O)[O-].[Na+]` [VALPROATE SODIUM], the ED50 [1] was 300 mg/kg, the LD50 [2] was 500 mg/kg and the inhibition in vivo at 300 mg/kg [3] was 100%. For the same molecule, the TD50 at 0.5 h [4] was 450 mg/kg and the inhibition in vivo at 300 mg/kg [5] was 100%.

With `Cc1ccccc1-n1c(C)nc2c(OCC(=O)NN)cccc2c1=O` the inhibition [6] was “inactive”, the inhibition in vivo at 500 µmol/kg [7] was 50% and the therapeutic index [8] was 10.2. The inhibition in vivo at 500 µmol/kg [9] was 100%, the ED50 [1] was 98 mg/kg and the LD50 [2] was 1000 mg/kg. The PI [10] was 2.72, the TD50 at 0.5 h [4] was 267 mg/kg and the inhibition [11] was “inactive”.

For `Cc1ccccc1-n1c(C)nc2ccccc2c1=O` [METHAQUALONE], the therapeutic index [8] was 2.5, the inhibition in vivo at 200 mg/kg [12] was 100% and the ED50 [1] was 200 mg/kg. The LD50 [2] was 500 mg/kg, the inhibition in vivo at 200 mg/kg [13] was 100% and the PI [10] was 2. For the same molecule, the TD50 at 0.5 h [4] was 400 mg/kg.

With `Cc1ccccc1-n1c(C)nc2c(OCC(=O)N/N=C\c3ccccc3F)cccc2c1=O` the inhibition [6] was “inactive”, the inhibition in vivo at 500 µmol/kg [7] was 50% and the inhibition in vivo at 500 µmol/kg [9] was 66%. The inhibition [11] was “inactive”.

In the case of `CSC(=S)NNC(=O)COc1cccc2c(=O)n(-c3ccccc3C)c(C)nc12`, the inhibition [6] is reported as “inactive”, the inhibition in vivo at 500 µmol/kg [7] is reported as 100% and the therapeutic index [8] is reported as 3.34. It also gave an inhibition in vivo at 500 µmol/kg [9] of 100%, an ED50 [1] of 150 mg/kg and an LD50 [2] of 501 mg/kg. For the same molecule, the PI [10] was 1.91, the TD50 at 0.5 h [4] was 287 mg/kg and the inhibition [11] was “inactive”.

In the case of `CCOC(=O)NNC(=O)COc1cccc2c(=O)n(-c3ccccc3C)c(C)nc12`, the inhibition [6] is reported as “inactive”, the inhibition in vivo at 500 µmol/kg [7] is reported as 100% and the therapeutic index [8] is reported as 1.53. The inhibition in vivo at 500 µmol/kg [9] was 100%, the ED50 [1] was 160 mg/kg and the LD50 [2] was 418 mg/kg. The PI [10] was 2.61, the TD50 at 0.5 h [4] was 246 mg/kg and the inhibition [11] was “inactive”.

In the case of `Cc1ccccc1-n1c(C)nc2c(OCC(=O)NCCO)cccc2c1=O`, the inhibition [6] is reported as “inactive”, the inhibition in vivo at 500 µmol/kg [7] is reported as 0% and the inhibition in vivo at 500 µmol/kg [9] is reported as 50%. The inhibition [11] was “inactive”.

For `Cc1ccccc1-n1c(C)nc2c(OCC(=O)NNC(=S)NN)cccc2c1=O`, the inhibition [6] was “inactive”, the inhibition in vivo at 500 µmol/kg [7] was 33% and the inhibition in vivo at 500 µmol/kg [9] was 66%. For the same molecule, the inhibition [11] was “inactive”.

In the case of `Cc1ccccc1-n1c(C)nc2c(OCC(=O)NNC(=O)NN)cccc2c1=O`, the inhibition [6] is reported as “inactive”, the inhibition in vivo at 500 µmol/kg [7] is reported as 0% and the inhibition in vivo at 500 µmol/kg [9] is reported as 50%. The inhibition [11] was “inactive”.

With `Cc1ccccc1-n1c(C)nc2c(OCC(=O)N/N=C\c3ccccc3)cccc2c1=O` the inhibition [6] was “inactive”, the inhibition in vivo at 500 µmol/kg [7] was 0% and the inhibition in vivo at 500 µmol/kg [9] was 50%. For the same molecule, the inhibition [11] was “inactive”.

In the case of `Cc1ccccc1-n1c(C)nc2c(OCC(=O)NNC(N)=O)cccc2c1=O`, the inhibition [6] is reported as “inactive”, the inhibition in vivo at 500 µmol/kg [7] is reported as 0% and the inhibition in vivo at 500 µmol/kg [9] is reported as 50%. For the same molecule, the inhibition [11] was “inactive”.

For `COc1ccccc1/C=N\NC(=O)COc1cccc2c(=O)n(-c3ccccc3C)c(C)nc12`, the inhibition [6] was “inactive”, the inhibition in vivo at 500 µmol/kg [7] was 0% and the inhibition in vivo at 500 µmol/kg [9] was 33%. For the same molecule, the inhibition [11] was “inactive”.

From ChEMBL document CHEMBL1932921, “Synthesis and anticonvulsant evaluation of some new 2,3,8-trisubstituted-4(3H)-quinazoline derivatives” (Bioorg Med Chem Lett, 2012)
